Test results reported in PMC7843452, “Novel Hybrids of Podophyllotoxin and Coumarin Inhibit the Growth and Migration of Human Oral Squamous Carcinoma Cells” (Frontiers in Chemistry, 2021).
Like-named read-outs stand apart in the source and are kept apart here.

Tests used:
[1] = system: human oral squamous carcinoma HSC-2 cells; experiment: CCK-8 antiproliferative assay, HSC-2; type: cell-based; settings: CCK-8, 72 h, mean ± SD; for IC50: read-out: IC50 (μM) HSC-2
Protocol: (§1) The in vitro antiproliferative activities of target compounds were investigated against human oral squamous carcinoma HSC-2, SCC-9, and A253 cells and human renal tubular epithelial HK-2 cells by Cell Counting Kit-8 (CCK-8) assay. The HSC-2, SCC-9, and A253 cell lines were purchased from Cobioer Biosciences (Nanjing, China), and HK-2 cell line was from KeyGen Biotech (Nanjing, China). The cells were placed into 96-well plates. After 24 h, cells were treated with 0.1% DMSO or different doses of test compounds for 72 h at 37°C in a CO2 incubator. Subsequently, 100 μl of CCK-8 test solution was added and incubated for 3 h at 37°C. The absorbance value of each well was measured at 450 nm.

[2] = system: human oral squamous carcinoma SCC-9 cells; experiment: CCK-8 antiproliferative assay, SCC-9; type: cell-based; settings: CCK-8, 72 h, mean ± SD; for IC50: read-out: IC50 (μM) SCC-9
Protocol: as §1

[3] = system: human oral squamous carcinoma A253 cells; experiment: CCK-8 antiproliferative assay, A253; type: cell-based; settings: CCK-8, 72 h, mean ± SD; for IC50: read-out: IC50 (μM) A253
Protocol: as §1

[4] = system: human non-small-cell lung carcinoma A549 cells; design: method as in Yang et al., 2019; settings: ref Yang et al., 2019; read-out: IC50 against A549 cells; cited from earlier work
[5] = system: human renal tubular epithelial HK-2 cells; experiment: CCK-8 assay on normal cells, HK-2; type: cell-based; settings: normal cells, CCK-8, 72 h, mean ± SD, read-out: IC50 (μM) HK-2
Protocol: as §1

Compound | IC50 (μM) HSC-2 [1] | IC50 ([1]; Homo sapiens, HSC-2) [µM] | IC50 (μM) SCC-9 [2] | IC50 ([2]; Homo sapiens, SCC-9) [µM] | IC50 (μM) A253 [3] | IC50 ([3]; Homo sapiens, A253) [µM] | IC50 [1] [µM] | IC50 [2] [µM] | IC50 [3] [µM] | IC50 [5] [µM] | also measured
O=c1ccc2ccc(O)cc2o1 [compound 8, 7-hydroxycoumarin] | no antiproliferative effect | > 100 | no antiproliferative effect | > 100 | no antiproliferative effect | > 100 | – | – | – | – | –
COc1ccc(-c2coc3cc(OCC(=O)OC4c5cc6c(cc5C(c5cc(OC)c(OC)c(OC)c5)C5C(=O)OCC45)OCO6)ccc3c2=O)cc1 (stereo not shown) [compound 6] | – | – | – | – | – | – | – | – | – | – | IC50 [4]: 0.753 ± 0.173 µM
O=c1[nH]cc(F)c(=O)[nH]1 [5-FU] | – | – | – | – | – | – | 7.12 ± 0.87 | 5.35 ± 0.784 | 5.52 ± 0.199 | 8.77 ± 1.04 | –
N.N.[Cl][Pt][Cl] [Cisplatin, cisplatin] | – | – | – | – | – | – | 2.03 ± 0.308 | 2.35 ± 0.384 | 1.62 ± 0.157 | 5.36 ± 0.33 | –

Further lines, with some results ahead:

IC50 (μM) HSC-2 [1] | IC50 ([1]; Homo sapiens, HSC-2) [µM] | IC50 (μM) SCC-9 [2] | IC50 ([2]; Homo sapiens, SCC-9) [µM] | IC50 (μM) A253 [3] | IC50 ([3]; Homo sapiens, A253) [µM] | Compound | IC50 [1] [µM] | IC50 [2] [µM] | IC50 [3] [µM] | IC50 [5] [µM] | also measured
no antiproliferative effect | > 100 | no antiproliferative effect | > 100 | no antiproliferative effect | > 100 | Cc1cc(=O)oc2cc(O)ccc12 [compound 7, 4-methylumbelliferone] | – | – | – | – | –
– | 1.25 ± 0.467 | – | 1.15 ± 0.308 | – | 0.95 ± 0.387 | COc1cc([C@@H]2c3cc4c(cc3[C@@H](O[C@@H]3O[C@@H]5CO[C@@H](C)O[C@H]5[C@H](O)[C@H]3O)[C@H]3COC(=O)[C@H]23)OCO4)cc(OC)c1O [Etoposide, etoposide] | – | – | – | – | IC50 ([5]; Homo sapiens, HK-2): 3.04 ± 1.37 µM
